Literature values in patent publication US4174406A, “Terpenylaminoalkanol fish toxicants” (priority 1977, dated 1979).
Like-named read-outs stand apart in the source and are kept apart here.

System: Carp
Conditions: registered fish toxicants, cited from earlier work

Compound	effect of water pH on activity	selectivity for carp	effect of water pH on activity (listed as antimyein)
C=C(C)[C@H]1Cc2c(ccc3c2O[C@@H]2COc4cc(OC)c(OC)cc4[C@@H]2C3=O)O1 [Rotenone]	adversely affected by waters of high pH	non-selective for carp	–
antimycin	adversely affected by pH	non-selective for carp	adversely affected by waters of high pH
